Source: patent publication US7772252B2, “Heterocyclic substituted carbonyl derivatives and their use as dopamine D3 receptor ligands” (Aventis Pharmaceuticals Inc., priority 2001, dated 2010)
Like-named read-outs stand apart in the source and are kept apart here.

Target: T1, cloned human dopamine D3 receptors (Homo sapiens, UniProt P35462)
T1 construct: expressed in transfected cells; membrane homogenate
Experiment: [N-Methyl-3H]Spiroperidol binding to cloned human dopamine D3 receptors
Description: [N-Methyl-^3H]Spiroperidol Binding to Cloned Human Dopamine D3 Receptors
This assay measures the in vitro activity of compounds on cloned human dopamine (D3) receptors and predicts the direct dopamine-blocking properties of putative neuropsychiatric agents at human dopamine D3 receptors.
The D3 gene was isolated from a human striatal cDNA library (Stratagene). The gene was sequenced and sub-cloned into the expression vector RC/RSV (Invitrogen). CHO (Chinese Hamster Ovary) cells were stably transfected with 10 μg of the D3/RSV plasmid using the DOTAP method from Boehringer Mannheim and 72 clones that were G418 resistant were isolated. Using mRNA and binding displacement data a single high expressing clone was identified. This clone was then grown in large batches for the purpose of developing a 96 well format assay.
• 1. One plate (10 cm) with approximately 2-3 million D3 cells per plate is incubated with 1 ml of Trypsin-EDTA at room temperature for ˜2 min or until cells have lifted off plates. Four ml of Ham's F12+10% Fetal Bovine Serum+1% Penicillin/Streptomycin+G418 (400 μg/ml) medium are added to resuspend cells and 1 ml of this is added to each large plate (15 cm) containing 19 ml of the same medium as mentioned above. • 2. The 5 large plates are incubated at 37° C.+5% CO2 for ˜3 days or until the cells are confluent. • 3. After these plates are confluent, they are split into 10 large plates. Medium is aspirated off, 2 ml of Trypsin-EDTA are added to each plate and plates are incubated at RT for 2 min or until cells have lifted off the plate. Eight ml of the F12 medium (same medium as #1 above) are added to each plate (10 ml total) to resuspend the cells and 5 ml are transferred to the 2 new plates containing 15 ml of the F12 media. • 4. The 10 large plates are incubated at 37° C.+5% CO2 for ˜2 days or until the cells are confluent. • 5. The 10 large plates are split into 60 large plates (using Trypsin-EDTA as #3 except 4 ml of F12 medium are added to resuspend cells and 1 ml is aliquoted to 6 new plates containing 19 ml of F12 medium each). • 6. Plates are incubated at 37° C.+5% CO2 for ˜3 days or until cell are confluent. • 7. The 60 large plates are then split into 60 roller bottles (100-150 million cells/bottle). Medium is aspirated off, 2 ml of Trypsin-EDTA are added to each plate and incubated at RT for ˜2 minutes or until cells have lifted off plates. Eight ml of F12 medium are added to each plate to resuspend cells and the entire 10 ml are added to 1 roller bottle containing 90 ml of the F12 medium. • 8. The 60 roller bottles are immediately placed on their sides and transferred to the roller bottle incubator. They are incubated at 37° C.+5% CO2 for ˜3-5 days. Cells are spun at 30-40% motor speed in the Form a incubator. • 9. Medium is poured off and cells are washed 2× in PBS. • 10. Cells are then scraped off in 20 ml of PBS and the bottles are rinsed again with 5 ml of PBS to remove any remaining cells. Cells are stored on ice before membrane preparation. • 11. The yield for 60 D3 roller bottles has varied from ˜260-500 mg. • Note: All tissue culture reagents are from Gibco-BRL. C. Membrane Preparation
The cells are harvested into 250 ml centrifuge tubes with 100 volumes of cold phosphate buffered saline (PBS) and spun down (1200×G for 10 min at 4° C.). The medium is removed and 100 ml PBS are added to each centrifuge tube, cells are resuspened and spun down again. The PBS is removed and the final pellet is homogenized in an appropriate volume of 10% DMSO with a polytron on ice at a medium setting.
A 200 μl sample membrane homogenate is added to 200 μl of 1% SDS, vortexed and allowed to stand for 5 min. Aliquots (25, 50 and 100 μl) of this mixture are assayed in duplicate following the standard Bio-Rad DC protein assay protocol (kit catalog number 500-0112) and using reagent S. Absorbance readings are made at 750 nm (note: the most accurate protein OD readings are between 0.1-0.5 units). […]

T1 sequence (P35462 whole entry): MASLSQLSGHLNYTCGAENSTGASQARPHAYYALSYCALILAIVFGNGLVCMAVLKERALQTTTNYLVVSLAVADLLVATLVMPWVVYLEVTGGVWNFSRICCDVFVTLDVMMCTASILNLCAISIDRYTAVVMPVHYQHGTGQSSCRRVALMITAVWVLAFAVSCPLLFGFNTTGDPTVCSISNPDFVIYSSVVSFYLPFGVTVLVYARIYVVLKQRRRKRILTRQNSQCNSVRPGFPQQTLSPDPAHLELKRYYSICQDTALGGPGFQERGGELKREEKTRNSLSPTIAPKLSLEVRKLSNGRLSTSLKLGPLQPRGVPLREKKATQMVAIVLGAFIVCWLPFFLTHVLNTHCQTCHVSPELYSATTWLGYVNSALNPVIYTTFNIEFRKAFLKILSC

| SMILES | Ki (read-out: D3 Ki) | Ki (D3 Ki) |
| --- | --- | --- |
| O=C(N[C@H]1CC[C@H](O)CC1)[C@@H]1C[C@H]1CN1CCN(c2nn(-c3cccc(F)c3)c3ccsc23)CC1 [A002243404] | 492 nM |  |
| O=C([C@@H]1C[C@H]1CN1CCN(c2csc3cc(C(F)(F)F)ccc23)CC1)N1CCC[C@@H](Cn2ccnc2)C1 [compound 833097] | 0.9 nM |  |
| O=C(NC1CCN(Cc2ccc(F)c(F)c2)CC1)[C@@H]1C[C@H]1CN1CCN(c2csc3cc(C(F)(F)F)ccc23)CC1 [compound 833512] | 2.17 nM |  |
| O=C(NCCCN1CCOCC1)[C@@H]1C[C@H]1CN1CCN(c2nn(-c3ccc(C(F)(F)F)cc3)c3ccsc23)CC1 [compound 834205] | 90.5 nM |  |
| O=C(NCCCN1CCCC1)[C@@H]1C[C@H]1CN1CCC(c2noc3ccsc23)CC1 [compound 831272] | 6.22 nM |  |
| Cn1nc(C2CCN(C[C@@H]3C[C@H]3C(=O)N3CCC[C@@H](Cn4ccnc4)C3)CC2)c2sccc21 [A002437352] | 1.22 nM |  |
| COc1c(F)ccc2c(C3CCN(C[C@@H]4C[C@H]4C(=O)NCCCc4ccccc4)CC3)noc12 [compound 831310] | 103 nM |  |
| CCC1CCC(NC(=O)C2CC2CN2CCN(Cc3ccc4c(c3)OCO4)CC2)CC1 (racemic) [compound 827240] | 152 nM |  |
| Cn1nc(C2CCN(C[C@@H]3C[C@H]3C(=O)NCC3CCNCC3)CC2)c2cccc(C(F)(F)F)c21 [A002440433A] | 180 nM |  |
| O=C([C@@H]1C[C@H]1CN1CCN(c2csc3cc(C(F)(F)F)ccc23)CC1)N1CCN(CCO)CC1 [compound 832735] | 36.8 nM |  |
| Cn1nc(N2CCN(C[C@@H]3C[C@H]3C(=O)NC3CCN(CC4CCCCC4)CC3)CC2)c2sccc21 [A002287757] | 2.41 nM |  |
| O=C(NCCCN1CCCCC1)[C@@H]1C[C@H]1CN1CCN(c2csc3ncccc23)CC1 [A002437094] | 91.9 nM |  |
| Cc1ccc2[nH]cc(CCNC(=O)[C@@H]3C[C@H]3CN3CCC(c4noc5ccsc45)CC3)c2c1 [compound 831277] | 5.38 nM |  |
| COc1c(F)ccc2c(C3CCN(CCC4(C(=O)NCCCn5ccnc5)CC4)CC3)noc12 [compound 833378] | 23.7 nM |  |
| O=C(NC1CCN(Cc2ccc(F)cc2F)CC1)C1CC1CN1CCC(c2noc3ccsc23)CC1 (racemic) [compound 832344] | 2.76 nM |  |
| O=C(NC1CCN(Cc2ccc(Cl)cc2)CC1)[C@@H]1C[C@H]1CN1CCC(c2noc3ccsc23)CC1 [compound 832729] | 1.67 nM |  |
| O=C(NCCOc1ccccc1)[C@@H]1C[C@H]1CN1CCC(c2noc3ccsc23)CC1 [compound 831343] | 13.7 nM |  |
| O=C(NCC1CCCNC1)[C@@H]1C[C@H]1CN1CCN(c2csc3cc(C(F)(F)F)ccc23)CC1 (mixture of isomers) [compound 832504] | 5.77 nM |  |
| Cn1nc(C2CCN(C[C@@H]3C[C@H]3C(=O)NCC3CCNCC3)CC2)c2sccc21 [A002440434A] | 462 nM |  |
| CC(=O)N1CCCCC1CCNC(=O)[C@@H]1C[C@H]1CN1CCN(c2csc3cc(C(F)(F)F)ccc23)CC1 (mixture of isomers) [compound 833064] | 28.8 nM |  |
| O=C(NCCCn1cnc(Cl)c1Cl)[C@@H]1C[C@H]1CN1CCC(c2noc3ccsc23)CC1 [compound 831198] | 1.76 nM |  |
| O=C(NCCCN1CCCCC1)[C@@H]1C[C@H]1CN1CCC(c2noc3ccc(C(F)(F)F)cc23)CC1 [A002200838] | 0.807 nM |  |
| COc1ccc2c(c1)c(N1CCN(C[C@@H]3C[C@H]3C(=O)NC3CCN(CC4CCCCC4)CC3)CC1)nn2C [compound 832743] | 2.36 nM |  |
| O=C([C@@H]1C[C@H]1CN1CCN(c2csc3cc(C(F)(F)F)ccc23)CC1)N1CCC(Nc2ccc(Cl)cc2)CC1 [compound 832495] |  | 63.6 nM |
| CC(C)(C)c1ccc(CCNC(=O)C2CC2CN2CCC(c3noc4ccsc34)CC2)cc1 (racemic) [compound 832046] | 35.5 nM |  |

| SMILES | Ki (read-out: D3 Ki) | Ki (D3 Ki) |
| --- | --- | --- |
| O=C(C1CC1CN1CCC(c2noc3ccsc23)CC1)N1CCN(c2ncccn2)CC1 (racemic) [compound 827394] | 391 nM |  |
| Cc1ccc2c(c1)c(C1CCN(C[C@@H]3C[C@H]3C(=O)N3CCC[C@@H](Cn4ccnc4)C3)CC1)nn2C [A002437354] | 1.03 nM |  |
| O=C([C@@H]1C[C@H]1CN1CCN(c2csc3cc(C(F)(F)F)ccc23)CC1)N1CCC[C@@H](CO)C1 [A002438637] | 21.2 nM |  |
| C[C@H]1CC[C@H](NC(=O)[C@@H]2C[C@H]2CN2CCN(c3nn(-c4ccc(F)cc4)c4ccccc34)CC2)CC1 [compound 833701] | 1.28 nM |  |
| O=C(NC1CCN(Cc2ccc(Cl)c(Cl)c2)CC1)[C@@H]1C[C@H]1CN1CCC(c2noc3ccsc23)CC1 [compound 832731] | 0.699 nM |  |
| O=C(N[C@H]1CC[C@H](O)CC1)C1(CCN2CCC(c3noc4ccsc34)CC2)CC1 [compound 832317] | 943 nM |  |
| O=C(NCCN1CCNC1=O)[C@@H]1C[C@H]1CN1CCC(c2noc3ccsc23)CC1 [compound 832529] | 146 nM |  |
| CC(C)(C)OC(=O)N1CC[C@@H](CNC(=O)[C@@H]2C[C@H]2CN2CCC(c3noc4ccsc34)CC2)C1 [compound 833373] | 65.5 nM |  |
| COc1cccc2c(C3CCN(C[C@@H]4C[C@H]4C(=O)NCCCn4ccnc4)CC3)noc12 [compound 831880] | 100 nM |  |
| O=C(C1CC1CN1CCC(c2noc3ccsc23)CC1)N1CCC(c2cc(-c3ccco3)[nH]n2)CC1 (racemic) [compound 831704] | 47.5 nM |  |
| CCCCn1nc(N2CCN(C[C@@H]3C[C@H]3C(=O)NCCCn3ccnc3)CC2)c2sccc21 [A002202401] | 205 nM |  |
| C[C@H]1CC[C@H](NC(=O)[C@@H]2CC[C@H]2CN2CCCN(c3csc4cc(F)ccc34)CC2)CC1 (racemic) [compound 829997] | 10.4 nM |  |
| O=C(NCCCCc1cccnc1)C1CC1CN1CCC(c2noc3ccsc23)CC1 (racemic) [compound 831686] | 25.3 nM |  |
| CCN1CCN(C(=O)N2CCC(NC(=O)C3CC3CN3CCC(c4noc5ccsc45)CC3)CC2)C(=O)C1=O (racemic) [compound 832489] | 95 nM |  |
| O=C(NCCc1c[nH]c2ccccc12)[C@@H]1C[C@H]1CN1CCC(c2noc3ccsc23)CC1 [compound 830830] | 2.58 nM |  |
| O=C(C1CC1CN1CCC(c2noc3ccsc23)CC1)N1CCN(CC2CCCCC2)CC1 (racemic) [compound 832195] | 22.8 nM |  |
| Cc1cc(C)c(CN2CCN(C(=O)C3CC3CN3CCC(c4noc5ccsc45)CC3)CC2)c(C)c1 (racemic) [compound 832194] | 23 nM |  |
| O=C([C@@H]1C[C@H]1CN1CCN(c2csc3ncccc23)CC1)N1CCC[C@@H](Cn2ccnc2)C1 [A002437802] | 0.251 nM |  |
| COc1ccc(CN2CCN(C(=O)C3CC3CN3CCC(c4noc5ccsc45)CC3)CC2)cc1 (racemic) [compound 832155] | 0.434 nM |  |
| O=C([C@@H]1C[C@H]1CN1CCC(c2noc3ccsc23)CC1)N1CCN(Cc2ccc(F)cc2)CC1 [compound 833132] | 108 nM |  |
| CCN(CC)C(=O)C1CCN(C(=O)C2CC2CN2CCC(c3noc4ccsc34)CC2)CC1 (racemic) [compound 831738] | 223 nM |  |
| O=C(NCCSc1ccc(Cl)cc1)C1CC1CN1CCC(c2noc3ccsc23)CC1 (racemic) [compound 832397] | 51.9 nM |  |
| Cc1cccc(CN2CCC(NC(=O)C3CC3CN3CCC(c4noc5ccsc45)CC3)CC2)c1 (racemic) [compound 832348] | 0.465 nM |  |
| O=C(C1CC1CN1CCC(c2noc3ccsc23)CC1)N1CCN(c2ccc(OCc3ccccc3)cc2)CC1 (racemic) [compound 832059] | 4.13 nM |  |
| Cn1nc(C2CCN(C[C@@H]3C[C@H]3C(=O)N[C@H]3CC[C@H](C)CC3)CC2)c2ccc(C(F)(F)F)cc21 [compound 833696] | 268 nM |  |
